Measured values taken from ChEMBL document CHEMBL1159326, “Three new homoisoflavanone glycosides from the bulbs of Ornithogalum caudatum” (J Nat Prod, 2002).
Activity calls are given as the source filed them. The calls are words filed in the database; no cut-off is given here.

Experiments:
[1] = system: P388; assay: Antitumor activity in mouse P388 cells; type: functional, cell-based
[2] = system: A549; assay: Antitumor activity in human A549 cells; type: functional, cell-based

COc1ccc(C[C@]2(O)COc3cc(OC)cc(O[C@@H]4O[C@H](CO[C@@H]5O[C@@H](C)[C@H](O)[C@@H](O)[C@H]5O)[C@@H](O)[C@H](O)[C@H]4O)c3C2=O)cc1
Activity [1]: inactive
Activity [2]: inactive

COc1ccc(C[C@]2(O)COc3cc(OC)cc(O[C@@H]4O[C@H](CO)[C@@H](O)[C@H](O)[C@H]4O[C@@H]4O[C@@H](C)[C@H](O)[C@@H](O)[C@H]4O)c3C2=O)cc1
Activity [1]: inactive
Activity [2]: inactive

COc1ccc(C[C@]2(O)COc3cc(OC)cc(O[C@@H]4O[C@H](CO)[C@@H](O)[C@H](O)[C@H]4O)c3C2=O)cc1
Activity [1]: inactive
Activity [2]: inactive
